# Test results taken from patent publication US8685977B2, “Chemical compounds” (Pfizer Limited, priority 2010, dated 2014).
# Molecular target: T1, Nav1.7 (or SCN9A) channel (Homo sapiens, UniProt Q15858)
# T1 construct: expressed in transfected cells
# Assay: Nav1.7 PatchXpress 7000 automated electrophysiology assay (HEK cells stably expressing hSCN9A)
# Format: cell-based
# Details: voltage-clamped at V1/2 of inactivation, read-out: Nav1.7 EIC50
# Method: The ability of the compounds of formula (I) to block the Nav1.7 (or SCN9A) channel was measured using the assays described below.
# Human Embryonic Kidney (HEK) cells were transfected with an hSCN9A construct using lipofectamine reagent (Invitrogen), using standard techniques. Cells stably expressing the hSCN9A constructs were identified by their resistance to G-418 (400 μg/ml). Clones were screened for expression using the whole-cell voltage-clamp technique.
# HEK cells stably transfected with hSCN9A were maintained in DMEM medium supplemented with 10% heat-inactivated fetal bovine serum and 400 μg/ml G-418 in an incubator at 37° C. with a humidified atmosphere of 10% CO2. For HTS, cells were harvested from flasks by trypsinization and replated in an appropriate multi-well plate (typically 96 or 384 wells/plate) such that confluence would be achieved within 24 hours of plating. For electrophysiological studies, cells were removed from the culture flask by brief trypsinization and re-plated at low density onto glass cover slips. Cells were typically used for electrophysiological experiments within 24 to 72 hours after plating.
# Cover slips containing HEK cells expressing hSCN9A were placed in a bath on the stage of an inverted microscope and perfused (approximately 1 ml/minutes) with extracellular solution of the following composition: 138 mM NaCl, 2 mM CaCl2, 5.4 mM KCl, 1 mM MgCl2, 10 mM glucose, and 10 mM HEPES, pH 7.4, with NaOH. […] The osmolarity of the extracellular and intracellular solutions was 300 mOsm/kg and 295 mOsm/kg, respectively. All recordings were made at room temperature (22-24° C.) using AXOPATCH 200B amplifiers and PCLAMP software (Axon Instruments, Burlingame, Calif.).
# HEK cells stably transfected with hSCN9A were viewed under Hoffman contrast optics and placed in front of an array of flow pipes emitting either control or compound-containing extracellular solutions. All compounds were dissolved in dimethyl sulfoxide to make 10 mM stock solutions, which were then diluted into extracellular solution to attain the final concentrations desired. […] The voltage-dependence of inactivation was determined by applying a series of depolarizing prepulses (8 sec long in 10 mV increments) from a negative holding potential. The voltage was then immediately stepped to 0 mV to assess the magnitude of the sodium current. Currents elicited at 0 mV were plotted as a function of prepulse potential to allow estimation of the voltage at which 50% of the channels were inactivated (midpoint of inactivation or V1/2). Compounds were tested for their ability to inhibit hSCN9A sodium channels by activating the channel with a 20 msec voltage step to 0 mV following an 8 second conditioning prepulse to the empirically determined V1/2. Compound effect (% inhibition) was determined by difference in current amplitude before and after application of test compounds. For ease of comparison, “estimated IC-50” (EIC50) values were calculated from single point electrophysiology data by the following equation, (tested concentration, uM)×(100-% inhibition/% inhibition). Inhibition values <20% and >80% were excluded from the calculation.
# Electrophysiological assays were conducted with PatchXpress 7000 hardware and associated software (Molecular Devices Corp). All assay buffers and solutions were identical to those used in conventional whole-cell voltage clamp experiments described above. hSCN9A cells were grown as above to 50%-80% confluency and harvested by trypsinization. Trypsinized cells were washed and resuspended in extracellular buffer at a concentration of 1×10^6 cells/ml. The onboard liquid handling facility of the PatchXpress was used for dispensing cells and application of test compounds. Determination of the voltage midpoint of inactivation was as described for conventional whole-cell recordings. Cells were then voltage-clamped to the empirically determined V1/2 and current was activated by a 20 msec voltage step to 0 mV. […]
# T1 sequence (Q15858 whole entry): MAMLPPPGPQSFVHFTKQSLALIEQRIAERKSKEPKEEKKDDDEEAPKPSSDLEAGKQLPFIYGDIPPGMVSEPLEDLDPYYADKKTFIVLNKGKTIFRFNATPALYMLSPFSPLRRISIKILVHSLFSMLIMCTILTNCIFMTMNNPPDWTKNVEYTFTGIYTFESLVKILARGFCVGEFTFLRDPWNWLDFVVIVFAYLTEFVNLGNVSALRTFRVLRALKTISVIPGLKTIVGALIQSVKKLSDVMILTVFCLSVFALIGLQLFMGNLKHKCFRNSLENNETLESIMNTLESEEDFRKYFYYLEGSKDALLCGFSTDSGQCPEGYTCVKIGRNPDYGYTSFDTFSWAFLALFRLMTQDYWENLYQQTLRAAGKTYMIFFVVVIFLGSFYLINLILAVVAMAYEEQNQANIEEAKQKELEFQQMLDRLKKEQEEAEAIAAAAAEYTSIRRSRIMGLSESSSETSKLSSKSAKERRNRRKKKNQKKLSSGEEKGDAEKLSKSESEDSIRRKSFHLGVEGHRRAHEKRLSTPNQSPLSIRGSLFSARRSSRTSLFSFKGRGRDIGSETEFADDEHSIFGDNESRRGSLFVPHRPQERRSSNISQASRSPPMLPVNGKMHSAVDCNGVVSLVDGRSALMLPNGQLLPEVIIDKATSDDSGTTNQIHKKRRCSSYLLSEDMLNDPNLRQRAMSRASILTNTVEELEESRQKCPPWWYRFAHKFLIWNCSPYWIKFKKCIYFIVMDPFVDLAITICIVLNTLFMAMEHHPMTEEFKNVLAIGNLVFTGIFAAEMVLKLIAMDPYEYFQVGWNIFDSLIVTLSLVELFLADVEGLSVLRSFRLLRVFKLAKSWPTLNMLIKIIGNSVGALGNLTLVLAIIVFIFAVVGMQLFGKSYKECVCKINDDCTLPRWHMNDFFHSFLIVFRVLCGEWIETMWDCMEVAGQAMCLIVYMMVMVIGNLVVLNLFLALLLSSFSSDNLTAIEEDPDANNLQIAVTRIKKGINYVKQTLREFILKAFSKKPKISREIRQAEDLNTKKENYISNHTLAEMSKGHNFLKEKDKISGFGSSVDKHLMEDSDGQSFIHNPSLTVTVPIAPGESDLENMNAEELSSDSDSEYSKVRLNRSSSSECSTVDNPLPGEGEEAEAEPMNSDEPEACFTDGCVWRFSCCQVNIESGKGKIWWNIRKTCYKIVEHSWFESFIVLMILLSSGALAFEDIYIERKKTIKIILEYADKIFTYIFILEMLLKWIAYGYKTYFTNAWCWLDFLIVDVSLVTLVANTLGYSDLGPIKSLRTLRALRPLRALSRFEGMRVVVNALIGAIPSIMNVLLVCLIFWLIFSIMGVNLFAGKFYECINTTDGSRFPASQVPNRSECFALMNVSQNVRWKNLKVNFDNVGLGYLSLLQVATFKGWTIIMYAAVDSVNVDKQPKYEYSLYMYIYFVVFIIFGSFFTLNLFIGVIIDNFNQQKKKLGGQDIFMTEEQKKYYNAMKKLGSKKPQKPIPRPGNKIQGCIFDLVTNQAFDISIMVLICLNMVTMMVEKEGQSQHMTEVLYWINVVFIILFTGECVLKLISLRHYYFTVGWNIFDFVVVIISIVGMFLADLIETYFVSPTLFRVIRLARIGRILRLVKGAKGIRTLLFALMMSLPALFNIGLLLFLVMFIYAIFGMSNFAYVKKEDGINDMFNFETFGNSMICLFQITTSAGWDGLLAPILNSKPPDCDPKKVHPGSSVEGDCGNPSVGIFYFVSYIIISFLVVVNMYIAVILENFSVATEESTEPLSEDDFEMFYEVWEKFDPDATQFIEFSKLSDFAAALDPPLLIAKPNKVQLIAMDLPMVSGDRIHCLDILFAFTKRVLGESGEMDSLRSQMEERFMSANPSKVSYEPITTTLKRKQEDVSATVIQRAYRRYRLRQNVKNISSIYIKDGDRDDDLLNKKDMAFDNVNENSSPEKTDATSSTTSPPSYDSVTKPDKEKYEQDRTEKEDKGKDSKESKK
row,Structure (SMILES),IC50 [µM]
1,"COc1c(C(=O)NS(C)(=O)=O)ccc(Oc2ccc(Cl)c(C(F)(F)F)c2)c1F [Example 78, 4-(4-chloro-3-(trifluoromethyl)phenoxy)-3-fluoro-2-methoxy-N-(methylsulfonyl)benzamide]",4.2
2,"Cn1nccc1-c1cc(Cl)ccc1Oc1cc(F)c(C(=O)NS(C)(=O)=O)cc1Cl [Example 80, 5-chloro-4-[4-chloro-2-(1-methyl-1H-pyrazol-5-yl)phenoxy]-2-fluoro-N-(methylsulfonyl)benzamide]",> 3
3,"Cc1cc(C(=O)NS(C)(=O)=O)ccc1Oc1ccc(Cl)c(Cl)c1 [Example 81, 4-(3,4-dichlorophenoxy)-3-methyl-N-(methylsulfonyl)benzamide]",0.23
4,"Cn1nccc1-c1cc(Cl)ccc1Oc1ccc(C(=O)NS(C)(=O)=O)cc1 [Example 83, 4-(4-chloro-2-(1-methyl-1H-pyrazol-5-yl)phenoxy)-N-(methylsulfonyl)benzamide]",> 3
5,"COc1ccc(C)cc1Oc1cc(F)c(C(=O)NS(C)(=O)=O)cc1F [Example 86, 2,5-difluoro-4-(2-methoxy-5-methylphenoxy)-N-(methylsulfonyl)benzamide]",> 1
6,"CS(=O)(=O)NC(=O)c1cc(F)c(Oc2cc(F)ccc2F)cc1F [Example 89, 4-(2,5-difluorophenoxy)-2,5-difluoro-N-(methylsulfonyl)benzamide]",> 3
7,"CC(C)Oc1ccccc1Oc1cc(F)c(C(=O)NS(C)(=O)=O)cc1F [Example 90, 2,5-difluoro-4-(2-isopropoxyphenoxy)-N-(methylsulfonyl)benzamide]",> 0.3
8,"CS(=O)(=O)NC(=O)c1cc(F)c(Oc2c(F)cccc2Cl)cc1F [Example 91, 4-(2-chloro-6-fluorophenoxy)-2,5-difluoro-N-(methylsulfonyl)benzamide]",> 3
9,"CC(C)c1ccccc1Oc1cc(F)c(C(=O)NS(C)(=O)=O)cc1F [Example 93, 2,5-difluoro-4-(2-isopropylphenoxy)-N-(methylsulfonyl)benzamide]",> 1
10,"CS(=O)(=O)NC(=O)c1cc(F)c(Oc2c(F)cc(F)cc2F)cc1F [Example 94, 2,5-difluoro-N-(methylsulfonyl)-4-(2,4,6-trifluorophenoxy)benzamide]",> 3
11,"CS(=O)(=O)NC(=O)c1cc(F)c(Oc2ccc(C#N)c(Cl)c2)cc1F [Example 95, 4-(3-chloro-4-cyanophenoxy)-2,5-difluoro-N-(methylsulfonyl)benzamide]",> 3

# The next lines start with the values.
row,IC50 [µM],Structure (SMILES)
1,0.53,"CS(=O)(=O)NC(=O)c1cc(F)c(Oc2ccc(Cl)c(C(F)(F)F)c2)cc1Cl [Example 77, 2-chloro-4-(4-chloro-3-(trifluoromethyl)phenoxy)-5-fluoro-N-(methylsulfonyl)benzamide]"
2,0.14,"CS(=O)(=O)NC(=O)c1ccc(Oc2ccc(Cl)c(Cl)c2)c(Cl)c1 [Example 82, 3-chloro-4-(3,4-dichlorophenoxy)-N-(methylsulfonyl)benzamide]"
3,> 1,"COc1cc(C)ccc1Oc1cc(F)c(C(=O)NS(C)(=O)=O)cc1F [Example 85, 2,5-difluoro-4-(2-methoxy-4-methylphenoxy)-N-(methylsulfonyl)benzamide]"
4,6.9,"CS(=O)(=O)NC(=O)c1cc(F)c(Oc2cccc(Cl)c2Cl)cc1F [Example 87, 4-(2,3-dichlorophenoxy)-2,5-difluoro-N-(methylsulfonyl)benzamide]"
5,> 3,"COc1ccc(C#N)cc1Oc1cc(F)c(C(=O)NS(C)(=O)=O)cc1F [Example 88, 4-(5-cyano-2-methoxyphenoxy)-2,5-difluoro-N-(methylsulfonyl)benzamide]"
6,> 3,"COc1cc(F)cc(Oc2cc(F)c(C(=O)NS(C)(=O)=O)cc2F)c1 [Example 92, 2,5-difluoro-4-(3-fluoro-5-methoxyphenoxy)-N-(methylsulfonyl)benzamide]"
7,> 3,"CS(=O)(=O)NC(=O)c1cc(F)c(Oc2c(F)cccc2F)cc1F [Example 96, 4-(2,6-difluorophenoxy)-2,5-difluoro-N-(methylsulfonyl)benzamide]"
